According to ChEMBL document CHEMBL3085706, “Scorpiand-like azamacrocycles prevent the chronic establishment of Trypanosoma cruzi in a murine model” (Eur J Med Chem, 2013):
Active and inactive are the calls of the source. The calls are words filed in the database; no cut-off is given here.

Tests used:
Mus musculus [1] = test: Hepatotoxicity in BALB/c mouse infected with bloodstream trypomastigote form of Trypanosoma cruzi IRHOD/CO/2008/SN3 assessed as delocalized hepatic destruction at 5 mg/kg/day, ip administered for 5 days measured 150 days post-infection by light microscopic analysis; type: toxicity, organism-based; set-up: route intraperitoneal; details: in vivo, 3600 h
Trypanosoma cruzi [2] = test: Trypanocidal activity against epimastigote form of Trypanosoma cruzi IRHOD/CO/2008/SN3 assessed as inhibition of acetate excretion at IC25 after 96 hrs by NMR spectra analysis; type: functional, organism-based
Trypanosoma cruzi [3] = test: Trypanocidal activity against bloodstream trypomastigote form of Trypanosoma cruzi IRHOD/CO/2008/SN3 infected in BALB/c mouse assessed as reduction of parasite load in liver at 5 mg/kg/day, ip administered for 5 days measured 150 days post-infection by PCR analysis; type: functional, organism-based
[4] = Inhibition of Fe-SOD in Trypanosoma cruzi IRHOD/CO/2008/SN3 epimastigotes assessed as reduction of nitrobluetetrazolium measured for 10 mins by spectrophotometric analysis
Trypanosoma cruzi [5] = test: Trypanocidal activity against trypomastigote form of Trypanosoma cruzi IRHOD/CO/2008/SN3 infected in African green monkey Vero cells assessed as inhibition of trypomastigotes released in culture medium at IC25 relative to control; type: functional
Trypanosoma cruzi [6] = test: Trypanocidal activity against bloodstream trypomastigote form of Trypanosoma cruzi IRHOD/CO/2008/SN3 infected in cyclophosphamide monohydrate-treated BALB/c immunosuppression mouse model assessed as reactivation of parasitemia level at 5 mg/kg/day, ip administered for 5 days measured 150 days post-infection (reference value: 91.7 %); type: functional; details: route intraperitoneal
[7] = Selectivity index, ratio of IC50 for African green monkey Vero cells to IC50 for extracellular epimastigote form of Trypanosoma cruzi IRHOD/CO/2008/SN3; type: toxicity, cell-based; details: read-out: Ratio IC50
[8] = Selectivity index, ratio of IC50 for African green monkey Vero cells to IC50 for intracellular amastigote form of Trypanosoma cruzi IRHOD/CO/2008/SN3; type: toxicity, cell-based; details: read-out: Ratio IC50
Trypanosoma cruzi [9] = test: (§1) Trypanocidal activity against amastigote form of Trypanosoma cruzi IRHOD/CO/2008/SN3 infected in African green monkey Vero cells assessed as inhibition of amastigotes load per cell at IC25 preincubated for 12 hrs followed by compound washout measured after 10 days by Giemsa staining-based microscopic analysis relative to control; type: functional
Trypanosoma cruzi [10] = test: Trypanocidal activity against epimastigote form of Trypanosoma cruzi IRHOD/CO/2008/SN3 assessed as appearance of large vacuoles at IC25 after 96 hrs by transmission electron microscopic analysis; type: functional, organism-based
Mus musculus [11] = test: Hepatotoxicity in BALB/c mouse infected with bloodstream trypomastigote form of Trypanosoma cruzi IRHOD/CO/2008/SN3 assessed as vessels with thickened walls at 5 mg/kg/day, ip administered for 5 days measured 150 days post-infection by light microscopic analysis; type: toxicity, organism-based; set-up: route intraperitoneal; details: in vivo
Trypanosoma cruzi [12] = test: Trypanocidal activity against epimastigote form of Trypanosoma cruzi IRHOD/CO/2008/SN3 assessed as inhibition of alanine excretion at IC25 after 96 hrs by NMR spectra analysis; type: functional, organism-based
Mus musculus [13] = test: Hepatotoxicity in BALB/c mouse infected with bloodstream trypomastigote form of Trypanosoma cruzi IRHOD/CO/2008/SN3 assessed as presence of necrotic cells in portal space at 5 mg/kg/day, ip administered for 5 days measured 150 days post-infection by light microscopic analysis; type: toxicity, organism-based; set-up: route intraperitoneal; details: in vivo, 3600 h
Trypanosoma cruzi [14] = test: Trypanocidal activity against extracellular trypomastigote form of Trypanosoma cruzi IRHOD/CO/2008/SN3 after 24 hrs by Neubauer hemocytometric analysis; type: functional, organism-based; details: IRHOD/CO/2008/SN3, 24 h
Trypanosoma cruzi [15] = test: (§2) Trypanocidal activity against bloodstream trypomastigote form of Trypanosoma cruzi IRHOD/CO/2008/SN3 infected in cyclophosphamide monohydrate-treated BALB/c immunosuppression mouse model assessed as reduction of parasite load in heart at 5 mg/kg/day, ip administered for 5 days measured 150 days post-infection by PCR analysis; type: functional, organism-based
Trypanosoma cruzi [16] = test: Trypanocidal activity against epimastigote form of Trypanosoma cruzi IRHOD/CO/2008/SN3 assessed as inhibition of lactate excretion at IC25 after 96 hrs by NMR spectra analysis; type: functional, organism-based
Trypanosoma cruzi [17] = test: Trypanocidal activity against epimastigote form of Trypanosoma cruzi IRHOD/CO/2008/SN3 assessed as abundant larger acidocalcisomes at IC25 after 96 hrs by transmission electron microscopic analysis; type: functional, organism-based
Mus musculus [18] = test: Hepatotoxicity in BALB/c mouse infected with bloodstream trypomastigote form of Trypanosoma cruzi IRHOD/CO/2008/SN3 assessed as lymphocytic infiltration in portal tracts at 5 mg/kg/day, ip administered for 5 days measured 150 days post-infection by light microscopic analysis; type: toxicity, organism-based; set-up: route intraperitoneal; details: in vivo, 3600 h
Trypanosoma cruzi [19] = test: Trypanocidal activity against epimastigote form of Trypanosoma cruzi IRHOD/CO/2008/SN3 assessed as effect on succinate production at IC25 after 96 hrs by NMR spectra analysis; type: functional, organism-based
[20] = Inhibition of Escherichia coli Mn-SOD assessed as reduction of nitrobluetetrazolium measured for 10 mins by spectrophotometric analysis
Mus musculus [21] = test: Hepatotoxicity in BALB/c mouse infected with bloodstream trypomastigote form of Trypanosoma cruzi IRHOD/CO/2008/SN3 assessed as interstitial hemorrhage at 5 mg/kg/day, ip administered for 5 days measured 150 days post-infection by light microscopic analysis; type: toxicity, organism-based; set-up: route intraperitoneal; details: in vivo, 3600 h
Mus musculus [22] = test: Hepatotoxicity in BALB/c mouse infected with bloodstream trypomastigote form of Trypanosoma cruzi IRHOD/CO/2008/SN3 assessed as hepatic destruction in portal space at 5 mg/kg/day, ip administered for 5 days measured 150 days post-infection by light microscopic analysis; type: toxicity, organism-based; set-up: route intraperitoneal; details: in vivo, 3600 h
Trypanosoma cruzi [23] = test: Trypanocidal activity against epimastigote form of Trypanosoma cruzi IRHOD/CO/2008/SN3 assessed as empty mitochondria at IC25 after 96 hrs by transmission electron microscopic analysis; type: functional, organism-based
Trypanosoma cruzi [24] = test: Trypanocidal activity against epimastigote form of Trypanosoma cruzi IRHOD/CO/2008/SN3 assessed as induction of ethanol production at IC25 after 96 hrs by NMR spectra analysis; type: functional, organism-based
Trypanosoma cruzi [25] = test: Trypanocidal activity against bloodstream trypomastigote form of Trypanosoma cruzi IRHOD/CO/2008/SN3 infected in BALB/c mouse assessed as reduction of parasite load in heart at 5 mg/kg/day, ip administered for 5 days measured 150 days post-infection by PCR analysis; type: functional, organism-based
Trypanosoma cruzi [26] = test: Trypanocidal activity against bloodstream trypomastigote form of Trypanosoma cruzi IRHOD/CO/2008/SN3 infected in BALB/c mouse assessed as reduction of anti-parasitic Ig-G level in serum at 5 mg/kg/day, ip administered for 5 days measured over 40 to 120 days post-infection by ELISA; type: functional, organism-based
Trypanosoma cruzi [27] = test: Trypanocidal activity against bloodstream trypomastigote form of Trypanosoma cruzi IRHOD/CO/2008/SN3 infected in cyclophosphamide monohydrate-treated BALB/c immunosuppression mouse model assessed as reduction of total anti-parasitic Ig-G level in serum at 5 mg/kg/day, ip administered for 5 days measured 150 days post-infection by ELISA; type: functional, organism-based
Mus musculus [28] = test: Hepatotoxicity in BALB/c mouse infected with bloodstream trypomastigote form of Trypanosoma cruzi IRHOD/CO/2008/SN3 assessed as centrilobular destruction of hepatic vein at 5 mg/kg/day, ip administered for 5 days measured 150 days post-infection by light microscopic analysis; type: toxicity, organism-based; set-up: route intraperitoneal; details: in vivo, 3600 h
Trypanosoma cruzi [29] = test: as §1, with “parasite infection rate” for “amastigotes load per cell”; type: functional
Trypanosoma cruzi [30] = test: Trypanocidal activity against extracellular epimastigote form of Trypanosoma cruzi IRHOD/CO/2008/SN3 after 72 hrs by Neubauer hemocytometric analysis; type: functional, organism-based; details: IRHOD/CO/2008/SN3, 72 h
Trypanosoma cruzi [31] = test: Trypanocidal activity against epimastigote form of Trypanosoma cruzi IRHOD/CO/2008/SN3 assessed as appearance of strongly electrondensed glycosomes at IC25 after 96 hrs by transmission electron microscopic analysis; type: functional, organism-based
Trypanosoma cruzi [32] = test: as §2, with “liver” for “heart”; type: functional, organism-based
Trypanosoma cruzi [33] = test: Trypanocidal activity against bloodstream trypomastigote form of Trypanosoma cruzi IRHOD/CO/2008/SN3 infected in BALB/c mouse assessed as reduction of circulating parasite burden at 5 mg/kg, ip administered for 5 to 10 days measured 22 to 60 days post-infection by Neubauer hemocytometric analysis; type: functional, organism-based; set-up: dose 5 mg/kg
Mus musculus [34] = test: Hepatotoxicity in BALB/c mouse infected with bloodstream trypomastigote form of Trypanosoma cruzi IRHOD/CO/2008/SN3 assessed as granuloma with lymphocytic infiltrate at 5 mg/kg/day, ip administered for 5 days measured 150 days post-infection by light microscopic analysis; type: toxicity, organism-based; set-up: route intraperitoneal; details: in vivo, 3600 h
Trypanosoma cruzi [35] = test: Inhibition of Fe-SOD in Trypanosoma cruzi IRHOD/CO/2008/SN3 epimastigotes assessed as reduction of nitrobluetetrazolium at 12.5 to 25 uM measured for 10 mins by spectrophotometric analysis relative to control
[36] = Selectivity index, ratio of IC50 for African green monkey Vero cells to IC50 for extracellular trypomastigote form of Trypanosoma cruzi IRHOD/CO/2008/SN3; type: toxicity, cell-based; details: read-out: Ratio IC50
Trypanosoma cruzi [37] = test: Trypanocidal activity against epimastigote form of Trypanosoma cruzi IRHOD/CO/2008/SN3 assessed as dispersed cytoplasm at IC25 after 96 hrs by transmission electron microscopic analysis; type: functional, organism-based
Vero = test: Cytotoxicity against African green monkey Vero cells after 72 hrs by flow cytometric analysis; type: cell-based; details: Chlorocebus sabaeus
Trypanosoma cruzi [38] = test: Trypanocidal activity against intracellular amastigote form of Trypanosoma cruzi IRHOD/CO/2008/SN3 infected in African green monkey Vero cells after 72 hrs by Giemsa staining assay; type: functional, organism-based; details: IRHOD/CO/2008/SN3, Vero

Row | SMILES | Activity (Mus musculus [1]) | inhibition (INH) (Trypanosoma cruzi [5]) | selectivity ratio [7] | selectivity ratio [8] | inhibition (INH) (Trypanosoma cruzi [9]) | Activity (Mus musculus [11]) | Activity (Mus musculus [13]) | IC50 (Trypanosoma cruzi [14]) | Activity (Mus musculus [18]) | Activity (Mus musculus [21]) | Activity (Mus musculus [22]) | Activity (Trypanosoma cruzi [26]) | Activity (Mus musculus [28]) | inhibition (INH) (Trypanosoma cruzi [29]) | IC50 (Trypanosoma cruzi [30]) | Activity (Trypanosoma cruzi [33]) | Activity (Mus musculus [34]) | selectivity ratio [36] | IC50 (Vero) | IC50 (Trypanosoma cruzi [38]) | also measured
1 | Cl.c1cncc(CNCCN2CCNCc3cccc(n3)CNCC2)c1 | Toxic | 89% | 52.7 | 44.8 | 69% | Toxic | Non-toxic | 19.7 µM | Toxic | Non-toxic | Non-toxic | Active | Non-toxic | 86% | 8 µM | Active | Toxic | 21.6 | 425 µM | 9.5 µM | inhibition (Trypanosoma cruzi [2]): Active; Activity (Trypanosoma cruzi [3]): Active; IC50 [4]: 10.8 µM; Activity (Trypanosoma cruzi [6]): 5.6%; Activity (Trypanosoma cruzi [10]): Active; inhibition (Trypanosoma cruzi [12]): Active; Activity (Trypanosoma cruzi [15]): Active; inhibition (Trypanosoma cruzi [16]): Active; Activity (Trypanosoma cruzi [17]): Active; Activity (Trypanosoma cruzi [19]): inactive; IC50 [20]: 63.6 µM; Activity (Trypanosoma cruzi [23]): Active; Activity (Trypanosoma cruzi [24]): Active; Activity (Trypanosoma cruzi [25]): Active; Activity (Trypanosoma cruzi [27]): Active; Activity (Trypanosoma cruzi [31]): Active; Activity (Trypanosoma cruzi [32]): Active; inhibition (Trypanosoma cruzi [35]): 100%; Activity (Trypanosoma cruzi [37]): Active
2 | NCCCNCCN1CCNCc2cccc(n2)CNCC1 | – | – | 8 | 8.3 | – | – | – | 27.6 µM | – | – | – | – | – | – | 21 µM | – | – | 6.1 | 167 µM | 20 µM | –
3 | O=C(Cn1ccnc1[N+](=O)[O-])NCc1ccccc1 [BENZNIDAZOLE] | Toxic | 27% | – | – | 12% | Non-toxic | Toxic | 22.6 µM | Non-toxic | Non-toxic | Toxic | Active | Non-toxic | 39% | – | Active | Toxic | – | – | 23 µM | –
